Measured values as given in PubChem BioAssay AID330 (DTP/NCI, 2004).
Values joined by “and” are separate entries in the source; they are usually repeats but may differ in a detail not shown here. Identical values can stand only once. Inconclusive results and toxic doses are left out. The calls were made as follows: active = survival T/C of 150% or more; inactive = T/C below 125% in these data. Peptide text beside a SMILES is read from it.

Test system: P388 leukemia ip, CD2F1 mice, survival T/C
Assay: NCI In Vivo Anticancer Drug Screen. Data for tumor model P388 Leukemia (intraperitoneal) in CD2F1 (CDF1) mice
Conditions: endpoint: median survival time, higher = longer survival
Method in brief: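 Mice carrying the transplanted tumor received test compound or vehicle. Survival was recorded in each group, and the value is the treated-group measurement divided by that of the vehicle-treated control group.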

[1] = dose: 50.0 mg/kg/injection, schedule: Q01DX005 (ip), vehicle: saline with Tween-80
[2] = dose: 50.0 mg/kg/injection, schedule: Q01DX005 (ip), vehicle: Klucel (hydroxypropylcellulose) (HPC)
[3] = dose: 200.0 mg/kg/injection, schedule: Q01DX005 (ip), vehicle: Klucel (hydroxypropylcellulose) (HPC)
[4] = dose: 50.0 mg/kg/injection, schedule: Q01DX009 (ip), vehicle: saline with Tween-80
[5] = dose: 100.0 mg/kg/injection, schedule: Q01DX009 (ip), vehicle: saline with Tween-80
[6] = dose: 200.0 mg/kg/injection, schedule: Q01DX009 (ip), vehicle: saline with Tween-80

Measured: T/C

CCOc1cc(C)c(C(CC(=O)O)CC(=O)N(CCCl)CCCl)cc1C(C)C (stereo not drawn)
inactive: dose: 100.0 mg/kg/injection, schedule: Q04DX003 (ip), vehicle: saline 107 % of control | dose: 200.0 mg/kg/injection, schedule: Q04DX003 (ip), vehicle: saline 100 % of control | dose: 400.0 mg/kg/injection, schedule: Q04DX003 (ip), vehicle: saline 108 % of control

CC(C)CC(N)C(=O)NC(C)C(=O)NC(CC(C)C)C(=O)O (stereo not drawn) (H-Leu-Ala-Leu-OH; configuration not given here)
inactive: dose: 25.0 mg/kg/injection, schedule: Q01DX005 (ip), vehicle: saline 101 % of control | dose: 50.0 mg/kg/injection, schedule: Q01DX005 (ip), vehicle: saline 102 % of control | dose: 100.0 mg/kg/injection, schedule: Q01DX005 (ip), vehicle: saline 101 % of control | dose: 200.0 mg/kg/injection, schedule: Q01DX005 (ip), vehicle: saline 100 % of control

CCC[CH2][Sn]1([CH2]CCC)[O]C2C(OC)OC3COC(c4ccccc4)OC3C2[O]1 (stereo not drawn)
inactive: dose: 12.5 mg/kg/injection, schedule: Q04DX003 (ip), vehicle: saline 105 % of control | dose: 25.0 mg/kg/injection, schedule: Q04DX003 (ip), vehicle: saline 110 % of control | dose: 50.0 mg/kg/injection, schedule: Q04DX003 (ip), vehicle: saline 112 % of control

O=C1CN(CCN2CCCCC2)CC(=O)N2Cc3ccccc3CN12
inactive: dose: 12.5 mg/kg/injection, schedule: Q01DX005 (ip), vehicle: saline with Tween-80 102 % of control | dose: 25.0 mg/kg/injection, schedule: Q01DX005 (ip), vehicle: saline with Tween-80 104 % of control | [1] 100 % of control and 102 % of control

Cc1ccc(C)n1-n1nnnc1N
inactive: [1] 101 % of control | dose: 100.0 mg/kg/injection, schedule: Q01DX005 (ip), vehicle: saline with Tween-80 100 % of control

CCO/C([O-])=C(\C=N\S(=O)(=O)c1ccc(C)cc1)[n+]1ccccc1
inactive: dose: 50.0 mg/kg/injection, schedule: Q01DX009 (ip), vehicle: Klucel (hydroxypropylcellulose) (HPC) 104 % of control | dose: 100.0 mg/kg/injection, schedule: Q01DX009 (ip), vehicle: Klucel (hydroxypropylcellulose) (HPC) 105 % of control | dose: 200.0 mg/kg/injection, schedule: Q01DX009 (ip), vehicle: Klucel (hydroxypropylcellulose) (HPC) 108 % of control

COC(=O)NC1C(C)OC(OC2C/C=C(/C)C3C=CC4C(OC5CC(OC6CCC(OC7CC(O)C(OC8CCC(O)C(C)O8)C(C)O7)C(C)O6)C(OC(C)=O)C(C)O5)C(C)CC(C)C4C3(C)/C(O)=C3/C(=O)OC4(CC(C=O)=CC(O)C4/C=C\2C)C3=O)CC1(C)[N+](=O)[O-] (stereo not drawn)
inactive: dose: 2.25 mg/kg/injection, schedule: Q01DX005 (iv), vehicle: water 97 % of control | dose: 2.5 mg/kg/injection, schedule: Q01DX005 (ip), vehicle: water 106 % of control and 120 % of control | dose: 3.06 mg/kg/injection, schedule: Q01DX005 (ip), vehicle: water 121 % of control | dose: 3.35 mg/kg/injection, schedule: Q01DX005 (iv), vehicle: water 96 % of control | dose: 4.49 mg/kg/injection, schedule: Q01DX005 (ip), vehicle: water 121 % of control | dose: 5.0 mg/kg/injection, schedule: Q01DX005 (ip), vehicle: water 121 % of control | dose: 5.0 mg/kg/injection, schedule: Q01DX005 (iv), vehicle: water 95 % of control | dose: 6.7 mg/kg/injection, schedule: Q01DX005 (ip), vehicle: water 118 % of control | dose: 7.47 mg/kg/injection, schedule: Q01DX005 (iv), vehicle: water 97 % of control | dose: 10.0 mg/kg/injection, schedule: Q01DX005 (ip), vehicle: water 121 % of control and 123 % of control and 124 % of control | dose: 11.14 mg/kg/injection, schedule: Q01DX005 (iv), vehicle: water 96 % of control

CCCCc1ccc2nc(C)cc(N/N=C/c3ccc4c(c3)OCO4)c2c1
inactive: dose: 12.5 mg/kg/injection, schedule: Q01DX005 (ip), vehicle: Klucel (hydroxypropylcellulose) (HPC) 94 % of control | dose: 25.0 mg/kg/injection, schedule: Q01DX005 (ip), vehicle: Klucel (hydroxypropylcellulose) (HPC) 100 % of control | [2] 92 % of control and 94 % of control | [3] 92 % of control

O=C1OC2C3COC(=O)c4cc(O)c(O)c(O)c4-c4c(cc(O)c(O)c4O)C(=O)OC2C(OC(=O)c2cc(O)c(O)c4c2[C@@H]2C1=CC(=O)[C@](O)(O4)C2(O)O)C(OC(=O)c1cc(O)c(O)c(O)c1)O3 (stereo partly drawn)
inactive: dose: 6.25 mg/kg/injection, schedule: Q01DX005 (ip), vehicle: DMSO 106 % of control | dose: 12.5 mg/kg/injection, schedule: Q01DX005 (ip), vehicle: DMSO 106 % of control | dose: 25.0 mg/kg/injection, schedule: Q01DX005 (ip), vehicle: DMSO 115 % of control

O=S(=O)(c1ccccc1)[C@H]1[C@@H]2O[C@@H]2C[C@@H]1O
inactive: dose: 60.0 mg/kg/injection, schedule: Q01DX005 (ip), vehicle: saline 104 % of control | dose: 120.0 mg/kg/injection, schedule: Q01DX005 (ip), vehicle: saline 103 % of control | dose: 240.0 mg/kg/injection, schedule: Q01DX005 (ip), vehicle: saline 98 % of control

COc1ccc([N+](=O)[O-])cc1C[S+](C)C
inactive: dose: 6.25 mg/kg/injection, schedule: Q01DX009 (ip), vehicle: Klucel (hydroxypropylcellulose) (HPC) 108 % of control | dose: 12.5 mg/kg/injection, schedule: Q01DX009 (ip), vehicle: Klucel (hydroxypropylcellulose) (HPC) 107 % of control | dose: 25.0 mg/kg/injection, schedule: Q01DX009 (ip), vehicle: Klucel (hydroxypropylcellulose) (HPC) 112 % of control

C=C(C)c1ccc([Si](C)(C)C)cc1
inactive: dose: 50.0 mg/kg/injection, schedule: Q01DX009 (ip), vehicle: saline 104 % of control | dose: 100.0 mg/kg/injection, schedule: Q01DX009 (ip), vehicle: saline 101 % of control | dose: 200.0 mg/kg/injection, schedule: Q01DX009 (ip), vehicle: saline 109 % of control

Cc1cc(Cl)c2c(N(C)C)cccc2n1
inactive: dose: 50.0 mg/kg/injection, schedule: Q01DX009 (ip), vehicle: acid diluted with saline 106 % of control | dose: 100.0 mg/kg/injection, schedule: Q01DX009 (ip), vehicle: acid diluted with saline 93 % of control

Cc1cc(C(=O)NC(C)c2ccc(S(=O)(=O)NC(=O)NC3CCCCC3)cc2)no1 (stereo not drawn)
inactive: dose: 50.0 mg/kg/injection, schedule: Q04DX002 (ip), vehicle: Klucel (hydroxypropylcellulose) (HPC) 99 % of control | dose: 100.0 mg/kg/injection, schedule: Q04DX002 (ip), vehicle: Klucel (hydroxypropylcellulose) (HPC) 100 % of control | dose: 200.0 mg/kg/injection, schedule: Q04DX002 (ip), vehicle: Klucel (hydroxypropylcellulose) (HPC) 97 % of control

CCOC(=O)C(=NNc1cc(OC)c(Cl)cc1OC)C(=O)OCC
inactive: [2] 94 % of control | dose: 100.0 mg/kg/injection, schedule: Q01DX005 (ip), vehicle: Klucel (hydroxypropylcellulose) (HPC) 94 % of control | [3] 94 % of control

CSC(=S)C(CNc1ncccn1)c1ccccc1 (stereo not drawn)
inactive: dose: 60.0 mg/kg/injection, schedule: Q01DX005 (ip), vehicle: Klucel + Tween-80 89 % of control | dose: 120.0 mg/kg/injection, schedule: Q01DX005 (ip), vehicle: Klucel + Tween-80 89 % of control

CC1=NN(C(=O)c2ccncc2)C(=O)C1N=Nc1ccc(S(=O)(=O)Nc2ccccn2)cc1 (stereo not drawn)
inactive: [4] 92 % of control | [5] 90 % of control | [6] 103 % of control

CC(=O)C1=C(C)NC(C)=C(C(C)=O)C1c1cccc([N+](=O)[O-])c1
inactive: dose: 25.0 mg/kg/injection, schedule: Q04DX003 (ip), vehicle: saline with Tween-80 100 % of control | dose: 50.0 mg/kg/injection, schedule: Q04DX003 (ip), vehicle: saline with Tween-80 100 % of control | dose: 100.0 mg/kg/injection, schedule: Q04DX003 (ip), vehicle: saline with Tween-80 100 % of control and 91 % of control

O=C(OCC1OC(n2cnc3c(=S)nc[nH]c32)C(OC(=O)c2ccc(Cl)cc2)C1OC(=O)c1ccc(Cl)cc1)c1ccc(Cl)cc1 (stereo not drawn)
inactive: [4] 90 % of control | [5] 90 % of control | [6] 90 % of control | dose: 400.0 mg/kg/injection, schedule: Q01DX009 (ip), vehicle: saline with Tween-80 90 % of control

CN1CC[As+](Cc2ccccc2)(c2ccccc2)CC1
inactive: dose: 100.0 mg/kg/injection, schedule: Q01DX001 (ip), vehicle: saline 87 % of control | dose: 200.0 mg/kg/injection, schedule: Q01DX001 (ip), vehicle: saline 102 % of control | dose: 400.0 mg/kg/injection, schedule: Q01DX001 (ip), vehicle: saline 104 % of control
